Laboratory results reported in patent publication EP4768499A1, “MACROCYCLIC PEPTIDE COMPOUND HAVING CELL MEMBRANE PERMEABILITY AND METABOLIC STABILITY, AND LIBRARY CONTAINING SAME” (Chugai Seiyaku Kabushiki Kaisha, priority 2023, dated 2025).
Starred links: 1 amine or outer side, 2 acyl side, 3 side chain; linkers in the order of their positions; H or OH if unused. Positions of bridges follow the written chain, without caps; N, C: chain ends. Non-standard residues stand in square brackets, D forms with d. Residues, ends and D or L forms follow the SMILES beside them. *: point of attachment. NMeF = CN[C@@H](Cc1ccccc1)C(=O)O; NMeGABA = CN(CCCC(=O)[*:2])[*:1]; NMeI = CC[C@H](C)[C@H](NC)C(=O)O; NMeT = CN[C@H](C(=O)O)[C@@H](C)O; hPhe = N[C@@H](CCc1ccccc1)C(=O)O; NMeβAla = CN(CCC(=O)[*:2])[*:1]; NMeD = CN[C@@H](CC(=O)O)C(=O)O; NMeL = CN[C@@H](CC(C)C)C(=O)O; NMeV = CN[C@H](C(=O)O)C(C)C; d(β3hA) = C[C@@H](N)CC(=O)O; NMeAbu = CC[C@H](NC)C(=O)O; NMeA = CN[C@@H](C)C(=O)O; Piperidide = C1CCN(*)CC1; Abu = CC[C@H](N)C(=O)O; NBuGly = CCCCNCC(=O)O; Sar = CNCC(=O)O; tBu = CC(C)(C)*

Experiments:
[1] = Metabolic stability test: liver microsomal stability assay; format: in vitro ADME, mouse; conditions: mouse liver microsomes 0.5 mg protein/mL, compound 1 µM; for microsomal CLint at 1 µM: male, pH 7.4, presence of NADPH, read-out: Mouse Hepatic Microsome CLh,int NADPH(+); for Mouse Hepatic Microsome CLh,int NADPH(-): absence of NADPH
Procedure: Under the presence and absence of NADPH, a microsome solution prepared to a concentration of 0.5 mg protein/mL using 100 mM phosphate buffer (pH 7.4) with mouse liver microsomes (male, Corning Incorporated, USA) and the compound at a concentration of 1 µM were subjected to a metabolic reaction for 22 minutes, 44 minutes, or 66 minutes. Protein removal processing was performed over time using acetonitrile, and the remaining amount of unchanged compound was analyzed using LCMS to calculate the intrinsic hepatic clearance (CLh, int) (Table 6).

[2] = tested on: Caco-2 cells; assay: Membrane permeability test using Caco-2 cells with preincubation; format: in vitro ADME; conditions: preincubation 20 to 24 hours; for Caco2 Papp (10^-6 cm/sec): Caco-2 cells, apical FaSSIF/HBSS 1% DMSO pH 6.0, basal HBSS 4% BSA pH 7.4, basal sample at 180 minutes; for Caco2 Papp: Apical FaSSIF/HBSS pH 6.0, Basal HBSS 4% BSA pH 7.4, 180 minutes
Procedure: (§1) The permeability coefficient (Caco-2 Papp (cm/sec)) is calculated using a numerical expression 1. [Expression 1] Papp = (1)/(C1 (0) × S) × (dQ)/(dt) [formula] dQ/dt represents the permeation rate of drug (the amount of drug appearing on the Basal side per unit time), S represents the total surface area of cells, and C1(0) represents the concentration of drug added on the Apical side.
(§2) Using a mixed medium of FaSSIF containing 1% DMSO and DMEM as the apical medium, and DMEM as the basal medium, Caco-2 cells and peptide compounds are preincubated for 20 to 24 hours under conditions of 5% CO2, 37°C, and 80 rpm. Afterward, the culture medium on the Apical side and the Basal side are aspirated and washed, the peptide compound was added to a FaSSIF/HBSS buffer solution containing 1% DMSO (1% DMSO) (pH 6.0) at the Apical side, a HBSS buffer solution containing 4% BSA (pH 7.4) was added to the Basal side, and measurement of membrane permeability is started. Each well is shaken under 5% CO2 at 37°C and 80 rpm, and at 180 minutes after the start of shaking, a sample on the Basal side is collected. The amount of peptide compounds in the sample was measured using LCMS, and the membrane permeability coefficient was calculated from the permeation amount (Table 7). When calculating the membrane permeability coefficient (Papp) from the permeation amount, the following expression can be used. Papp = (dQ)/(dt) × (1)/(C1 (0) × S) [formula]
(§3) dQ/dt represents the permeation rate of drug (the amount of drug appearing on the Basal side per unit time), C1(0) represents the concentration of drug added on the Apical side, and S represents the total surface area of cells.

[3] = as above; format: in vitro ADME; conditions: Caco-2; preincubation 20 to 24 hours; Apical FaSSIF/HBSS pH 6.0, Basal HBSS 4% BSA pH 7.4; 180 minutes; read-out: Caco2 Papp
Procedure: as §1, §2, §3

microsomal CLint at 1 µM [1] | Mouse Hepatic Microsome CLh,int NADPH(-) [1] | Caco2 Papp (10^-6 cm/sec) [2] | Papp A→B [3] | Caco2 Papp [2] | SMILES
32.4 µL/min/mg | 34.0 µL/min/mg Protein | 0.13 10^-6 cm/sec | 0.13 ×10⁻⁶ cm/s |  | CC[C@H](C)[C@@H]1NC(=O)[C@H](CC(C)C)N(C)C(=O)[C@H](CC(C)C)NC(=O)CCN(C)C(=O)C[C@@H](C(=O)N2CCCCC2)N(C)C(=O)[C@H](CC(C)C)N(C)C(=O)[C@H](C)N(C)C(=O)[C@H]([C@@H](C)O)N(C)C(=O)[C@H](CC(C)C)N(C)C(=O)[C@H](COC(C)(C)C)NC(=O)[C@H](Cc2ccccc2)N(C)C(=O)[C@H](CC(C)C)N(C)C(=O)[C@H](Cc2ccccc2)N(C)C1=O [pd166] ([NMeβAla]L[NMeL]I[NMeF][NMeL][NMeF]S(tBu)[NMeL][NMeT][NMeA][NMeL][NMeD]-Piperidide; lactam N-13)
32.3 µL/min/mg | 28.2 µL/min/mg Protein | 1.24 10^-6 cm/sec | 1.24 ×10⁻⁶ cm/s |  | CC[C@H](C)[C@@H]1NC(=O)[C@H](CC(C)C)N(C)C(=O)C[C@@H](C)NC(=O)[C@H](C(C)C)N(C)C(=O)[C@H](COC(C)(C)C)NC(=O)[C@H](CC)N(C)C(=O)[C@H](Cc2ccccc2)N(C)C(=O)[C@H](CC(C)C)NC(=O)[C@@H]2CCCN2C(=O)[C@H]([C@@H](C)O)N(C)C(=O)[C@H](CC(C)C)N(C)C(=O)[C@H](CC)N(C)C(=O)[C@H](CC(C)C)N(C)C1=O [pd139] (cyclo(I[NMeL][NMeAbu][NMeL][NMeT]PL[NMeF][NMeAbu]S(tBu)[NMeV][d(β3hA)][NMeL]))
63.5 µL/min/mg | 29.9 µL/min/mg Protein | 0.58 10^-6 cm/sec | 0.58 ×10⁻⁶ cm/s |  | CCCCN1CC(=O)N[C@@H]([C@@H](C)CC)C(=O)N(C)[C@@H](CC(C)C)C(=O)N[C@@H](C(C)C)C(=O)N[C@H](C(=O)N2CCCCC2)CC(=O)N(C)[C@@H](C)C(=O)N(C)[C@@H](CC(C)C)C(=O)N[C@@H]([C@@H](C)O)C(=O)N(C)[C@@H](Cc2ccccc2)C(=O)N[C@@H](CC)C(=O)N(C)[C@@H](Cc2ccccc2)C(=O)N[C@@H](C)C(=O)N(C)CCC(=O)N[C@@H](CC(C)C)C1=O [pd026] ([NMeA][NMeL]T[NMeF][Abu][NMeF]A[NMeβAla]L[NBuGly]I[NMeL]VD-Piperidide; lactam N-14)
14.1 µL/min/mg | 7.5 µL/min/mg Protein | 0.55 10^-6 cm/sec | 0.55 ×10⁻⁶ cm/s |  | CC[C@H](C)[C@@H]1NC(=O)[C@H](C)N(C)C(=O)CCCN(C)C(=O)C[C@@H](C)NC(=O)[C@H](C(C)C)N(C)C(=O)[C@H](CCc2ccccc2)NC(=O)[C@H](C)N(C)C(=O)[C@H]([C@@H](C)O)N(C)C(=O)[C@H](CC(C)C)N(C)C(=O)[C@H](C(C)C)NC(=O)[C@H](Cc2ccccc2)N(C)C(=O)[C@H](C)N(C)C(=O)[C@H](C(C)C)N(C)C1=O [pd137] (cyclo(I[NMeV][NMeA][NMeF]V[NMeL][NMeT][NMeA][hPhe][NMeV][d(β3hA)][NMeGABA][NMeA]))
32.5 µL/min/mg | 26.2 µL/min/mg Protein | 0.04 10^-6 cm/sec |  | 0.04 10^-6 cm/sec | CC[C@@H]1NC(=O)[C@H]([C@@H](C)CC)NC(=O)[C@H](Cc2ccccc2)N(C)C(=O)[C@H](CC(C)C)N(C)C(=O)[C@H](CC(C)C)NC(=O)CCN(C)C(=O)C[C@@H](C(=O)N2CCCCC2)NC(=O)[C@H](C(C)C)NC(=O)[C@H](CC(C)C)N(C)C(=O)[C@H](C)N(C)C(=O)[C@H](C(C)C)NC(=O)[C@H](CC(C)C)N(C)C(=O)[C@H](COC(C)(C)C)NC(=O)[C@H](Cc2ccccc2)N(C)C1=O [pd015] ([NMeβAla]L[NMeL][NMeF]I[Abu][NMeF]S(tBu)[NMeL]V[NMeA][NMeL]VD-Piperidide; lactam N-14)
10.9 µL/min/mg | 18.2 µL/min/mg Protein | <0.10 10^-6 cm/sec |  | <0.10 10^-6 cm/sec | CC[C@@H]1NC(=O)[C@H](CC(C)C)N(C)C(=O)[C@H](C)NC(=O)CN(C)C(=O)[C@H](CC(C)C)N(C)C(=O)CCN(C)C(=O)[C@H](Cc2ccccc2)N(C)C(=O)[C@H]([C@@H](C)CC)NC(=O)[C@H]([C@@H](C)CC)N(C)C(=O)[C@@H](C)NC(=O)C[C@@H](C(=O)N2CCCCC2)N(C)C(=O)[C@H](Cc2ccccc2)N(C)C(=O)[C@H](C(C)C)NC(=O)[C@H](C)N(C)C1=O [pd076] ([dA][NMeI]I[NMeF][NMeβAla][NMeL][Sar]A[NMeL][Abu][NMeA]V[NMeF][NMeD]-Piperidide; lactam N-14)
24.6 µL/min/mg | 28.8 µL/min/mg Protein | 0.21 10^-6 cm/sec |  | 0.21 10^-6 cm/sec | CC[C@@H]1NC(=O)CCN(C)C(=O)C[C@@H](C)NC(=O)[C@H](CC(C)C)N(C)C(=O)[C@H]([C@@H](C)O)NC(=O)[C@H](C)N(C)C(=O)[C@H]([C@@H](C)CC)NC(=O)[C@H](CCc2ccccc2)NC(=O)[C@H](CC(C)C)N(C)C(=O)[C@H](C)N(C)C(=O)[C@H](Cc2ccccc2)N(C)C(=O)[C@@H]2CCCN2C(=O)[C@H]([C@@H](C)CC)NC(=O)[C@H](CC(C)C)N(C)C1=O [pd051] (cyclo([Abu][NMeL]IP[NMeF][NMeA][NMeL][hPhe]I[NMeA]T[NMeL][d(β3hA)][NMeβAla]))
26.9 µL/min/mg | 26.9 µL/min/mg Protein | 0.22 10^-6 cm/sec |  | 0.22 10^-6 cm/sec | CC[C@H](C)[C@@H]1NC(=O)[C@H]([C@@H](C)CC)N(C)C(=O)[C@@H](C)NC(=O)C[C@@H](C(=O)N2CCCCC2)N(C)C(=O)[C@H](C(C)C)NC(=O)[C@H](Cc2ccccc2)N(C)C(=O)[C@H](C(C)C)NC(=O)[C@H](CC(C)C)N(C)C(=O)[C@H](C)NC(=O)CN(C)C(=O)[C@H](CC(C)C)N(C)C(=O)[C@H](C(C)C)NC(=O)[C@H](C)N(C)C(=O)[C@H](Cc2ccccc2)N(C)C1=O [pd074] ([dA][NMeI]I[NMeF][NMeA]V[NMeL][Sar]A[NMeL]V[NMeF]V[NMeD]-Piperidide; lactam N-14)

SMILES | microsomal CLint at 1 µM [1] | Mouse Hepatic Microsome CLh,int NADPH(-) [1] | Caco2 Papp (10^-6 cm/sec) [2] | Papp A→B [3] | Caco2 Papp [2]
CC[C@H](C)[C@H]1C(=O)N[C@@H](CC(C)C)C(=O)N(C)[C@@H](CC(C)C)C(=O)N(C)[C@@H](C(C)C)C(=O)N(C)[C@@H](C)C(=O)N[C@@H]([C@@H](C)O)C(=O)N(C)[C@@H](CC(C)C)C(=O)N[C@H](C)CC(=O)N(C)CCC(=O)N[C@@H](CCc2ccccc2)C(=O)N(C)[C@@H](CC(C)C)C(=O)N2CCC[C@H]2C(=O)N(C)[C@@H](Cc2ccccc2)C(=O)N(C)[C@@H](C)C(=O)N1C [pd060] (cyclo(L[NMeL][NMeV][NMeA]T[NMeL][d(β3hA)][NMeβAla][hPhe][NMeL]P[NMeF][NMeA][NMeI])) | 32.4 µL/min/mg | 38.6 µL/min/mg Protein | 0.63 10^-6 cm/sec |  | 0.63 10^-6 cm/sec
CC[C@@H]1NC(=O)[C@H](CC(C)C)N(C)C(=O)[C@H](COC(C)(C)C)NC(=O)[C@H](Cc2ccccc2)N(C)C(=O)[C@H](CC)NC(=O)[C@H](Cc2ccccc2)N(C)C(=O)[C@H](C)N(C)C(=O)[C@H](CC(C)C)N(C)C(=O)[C@H](CC(C)C)NC(=O)CCCN(C)C(=O)C[C@@H](C(=O)N2CCCCC2)NC(=O)[C@H](CC(C)C)N(C)C(=O)[C@H](C(C)C)NC(=O)[C@H](C)N(C)C1=O [pd016] ([NMeGABA]L[NMeL][NMeA][NMeF][Abu][NMeF]S(tBu)[NMeL][Abu][NMeA]V[NMeL]D-Piperidide; lactam N-14) | 49.9 µL/min/mg | 32.9 µL/min/mg Protein | 0.47 10^-6 cm/sec |  | 0.47 10^-6 cm/sec
